Biological target: T1, CXCR4 receptors (Homo sapiens, UniProt P61073)
T1 construct: expressing endogenous CXCR4 receptors; endogenous in cells; host or cells: CCRF-CEM (human T lymphoblast cells)
Experiment: CXCR4-CEM calcium flux assay, antagonist mode (inhibition of SDF-1α-induced calcium flux)
Type: cell-based
Conditions: inhibition of calcium flux induced by 4 nM SDF-1α in CCRF-CEM cells
Procedure, shortened: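 CCRF-CEM cells were preincubated with compound (0.5% DMSO) for 25 min at room temperature, then stimulated with 4 nM SDF-1α. The resulting calcium flux was recorded by FDSS for 90 sec. Percent inhibition was calculated against an internal control compound, and background-corrected EC50 values were derived.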

T1 sequence (P61073 whole entry): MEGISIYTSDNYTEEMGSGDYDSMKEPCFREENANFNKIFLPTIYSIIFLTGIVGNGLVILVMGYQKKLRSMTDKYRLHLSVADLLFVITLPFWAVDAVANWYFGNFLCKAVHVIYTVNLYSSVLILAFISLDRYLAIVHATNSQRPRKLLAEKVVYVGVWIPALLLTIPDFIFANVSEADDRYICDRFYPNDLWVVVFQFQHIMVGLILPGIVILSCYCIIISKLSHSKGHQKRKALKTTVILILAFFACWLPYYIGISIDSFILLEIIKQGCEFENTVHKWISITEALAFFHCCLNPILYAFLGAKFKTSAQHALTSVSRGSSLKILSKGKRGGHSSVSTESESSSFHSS

| SMILES | IC50 [nM] |
| --- | --- |
| CN(Cc1cn2c(N3CCN(Cc4ccncc4)CC3)nccc2n1)[C@H]1CCCc2cccnc21 [Example 29, (S)-N-methyl-N-({5-[4-(pyridin-4-ylmethyl)piperazin-1-yl]imidazo[1,2-c]pyrimidin-2-yl}methyl)-5,6,7,8-tetrahydroquinolin-8-amine] | 77 |
| CN(Cc1cn2c(N3CCN(CCO)CC3)nccc2n1)[C@H]1CCCc2cccnc21 [Example 11, (S)-2-(4-(2-((Methyl(5,6,7,8-tetrahydroquinolin-8-yl)amino)methyl)imidazo[1,2-c]pyrimidin-5-yl)piperazin-1-yl)ethanol] | 13 |
| CN(C)c1ccc(CN2CCN(c3nccc4nc(CN(C)[C@H]5CCCc6cccnc65)cn34)CC2)cc1 [Example 60, (8S)-N-{[5-(4-{[4-(dimethylamino)phenyl]methyl}piperazin-1-yl)imidazo[1,2-c]pyrimidin-2-yl]methyl}-N-methyl-5,6,7,8-tetrahydroquinolin-8-amine] | 7.6 |
| Cc1ccc(CN2CCN(c3nccc4nc(CN(C)[C@H]5CCCc6cccnc65)cn34)CC2)cc1 [Example 53, (S)-N-methyl-N-[(5-{4-[(4-methylphenyl)methyl]piperazin-1-yl}imidazo[1,2-c]pyrimidin-2-yl)methyl]-5,6,7,8-tetrahydroquinolin-8-amine] | 17 |
| CN(Cc1cn2c(N3CCN4CCOCC4C3)nccc2n1)[C@H]1CCCc2cccnc21 (single isomer, unassigned) [Example 92] | 290 |
| CN(Cc1cn2c(N3CC4CCNC4C3)nccc2n1)[C@H]1CCCc2cccnc21 (stereo partly drawn) [Example 93, (8S)-N-((5-(hexahydropyrrolo[3,4-b]pyrrol-5(1H)-yl)imidazo[1,2-c]pyrimidin-2-yl)methyl)-N-methyl-5,6,7,8-tetrahydroquinolin-8-amine] | 27 |
| CN(Cc1cn2c(N3CCN(C4CCCCC4)CC3)nccc2n1)[C@H]1CCCc2cccnc21 [Example 23, (S)-N-{[5-(4-cyclohexylpiperazin-1-yl)imidazo[1,2-c]pyrimidin-2-yl]methyl}-N-methyl-5,6,7,8-tetrahydroquinolin-8-amine] | 770 |
| CN1CCN(c2nccc3nc(CN(C)[C@H]4CCCc5cccnc54)cn23)CC1 [Example 4, (S)—N-Methyl-N-((5-(4-methylpiperazin-1-yl)imidazo[1,2-c]pyrimidin-2-yl)methyl)-5,6,7,8-tetrahydroquinolin-8-amine] | 2.5 |
| CN(Cc1cn2c(N3CC4CCCNC4C3)nccc2n1)[C@H]1CCCc2cccnc21 (single isomer, unassigned) [Example 96] | 220 |
| CN(Cc1cn2c(N3CCN(CCN)CC3)nccc2n1)[C@H]1CCCc2cccnc21 [Example 16, (S)—N-((5-(4-(2-Aminoethyl)piperazin-1-yl)imidazo[1,2-c]pyrimidin-2-yl)methyl)-N-methyl-5,6,7,8-tetrahydroquinolin-8-amine] | 540 |
| CN(Cc1cn2c(N3CCN(Cc4cccc(Oc5ccccc5)c4)CC3)nccc2n1)[C@H]1CCCc2cccnc21 [Example 57, (8S)-N-methyl-N-[(5-{4-[(3-phenoxyphenyl)methyl]piperazin-1-yl}imidazo[1,2-c]pyrimidin-2-yl)methyl]-5,6,7,8-tetrahydroquinolin-8-amine] | 28 |
| CN1CCCC2CN(c3nccc4nc(CN(C)[C@H]5CCCc6cccnc65)cn34)CC21 (stereo partly drawn) [Example 102, (8S)-N-methyl-N-((5-(1-methyloctahydro-6H-pyrrolo[3,4-b]pyridin-6-yl)imidazo[1,2-c]pyrimidin-2-yl)methyl)-5,6,7,8-tetrahydroquinolin-8-amine] | 210 |
| CN(Cc1cn2c(N3CCN(CC(C)(C)C)CC3)nccc2n1)[C@H]1CCCc2cccnc21 [Example 33, (S)-N-({5-[4-(2,2-dimethylpropyl)piperazin-1-yl]imidazo[1,2-c]pyrimidin-2-yl}methyl)-N-methyl-5,6,7,8-tetrahydroquinolin-8-amine] | 1000 |
| CN(Cc1cn2c(N3CCN(Cc4ccccc4O)CC3)nccc2n1)[C@H]1CCCc2cccnc21 [Example 59, 2-({4-[2-({methyl[(S)-5,6,7,8-tetrahydroquinolin-8-yl]amino}methyl)imidazo[1,2-c]pyrimidin-5-yl]piperazin-1-yl}methyl)phenol] | 25 |
| CN(Cc1cn2c(N3CCN4CCC[C@H]4C3)nccc2n1)[C@H]1CCCc2cccnc21 [Example 76, (S)-N-((5-((S)-hexahydropyrrolo[1,2-a]pyrazin-2(1H)-yl)imidazo[1,2-c]pyrimidin-2-yl)methyl)-N-methyl-5,6,7,8-tetrahydroquinolin-8-amine] | 6.4 |
| CN1CCC2CN(c3nccc4nc(CN(C)[C@H]5CCCc6cccnc65)cn34)CC21 (stereo partly drawn) [Example 101, (8S)-N-methyl-N-((5-(1-methylhexahydropyrrolo[3,4-b]pyrrol-5(1H)-yl)imidazo[1,2-c]pyrimidin-2-yl)methyl)-5,6,7,8-tetrahydroquinolin-8-amine] | 220 |
